Active and inactive are the calls of the source.
Tests used:
Type in all cases: functional, organism-based
Mus musculus [1] = assay: Antiinflammatory activity in C57BL/6 mouse model of CS-induced pulmonary injury assessed as reduction in 8-oxo-dG in lungs at 1 mg/kg, ip for 5 days by ELISA
Mus musculus [2] = assay: Antiinflammatory activity in C57BL/6 mouse model of CS-induced pulmonary injury assessed as reduction in thickening of the alveolar septa in lungs at 1 mg/kg, ip for 5 days by hematoxylin and eosin staining based fluorescence microscopic analysis
Mus musculus [3] = assay: Antiinflammatory activity in C57BL/6 mouse model of CS-induced pulmonary injury assessed as reduction in goblet cell hyperplasia in peribronchial in lungs at 1 mg/kg, ip for 5 days by hematoxylin and eosin staining based fluorescence microscopic analysis
Mus musculus [4] = assay: Antiinflammatory activity in C57BL/6 mouse model of CS-induced pulmonary injury assessed as reduction in goblet cell hyperplasia in perivascular areas in lungs at 1 mg/kg, ip for 5 days by hematoxylin and eosin staining based fluorescence microscopic analysis
Mus musculus [5] = assay: Antiinflammatory activity in C57BL/6 mouse model of CS-induced pulmonary injury assessed as reduction in hyperplasia of pneumo-cytes in lungs at 1 mg/kg, […] by hematoxylin and eosin staining based fluorescence microscopic analysis
Mus musculus [6] = assay: Antiinflammatory activity in C57BL/6 mouse model of CS-induced pulmonary injury assessed as reduction in distinct infiltration of leukocytes in lungs at 1 mg/kg, ip for 5 days by hematoxylin and eosin staining based fluorescence microscopic analysis
Mus musculus [7] = assay: Antiinflammatory activity in C57BL/6 mouse model of CS-induced pulmonary injury assessed as reduction in 8-oxo-dG in lungs at 50 mg/kg, ip for 5 days by ELISA
Mus musculus [8] = assay: Antiinflammatory activity in C57BL/6 mouse model of CS-induced pulmonary injury assessed as reduction in goblet cell hyperplasia in perivascular areas in lungs at 50 mg/kg, ip for 5 days by hematoxylin and eosin staining based fluorescence microscopic analysis
Mus musculus [9] = assay: Antiinflammatory activity in C57BL/6 mouse model of CS-induced pulmonary injury assessed as reduction in distinct infiltration of leukocytes in lungs at 50 mg/kg, ip for 5 days by hematoxylin and eosin staining based fluorescence microscopic analysis
Mus musculus [10] = assay: Antiinflammatory activity in C57BL/6 mouse model of CS-induced pulmonary injury assessed as reduction in thickening of the alveolar septa in lungs at 50 mg/kg, ip for 5 days by hematoxylin and eosin staining based fluorescence microscopic analysis
Mus musculus [11] = assay: Antiinflammatory activity in C57BL/6 mouse model of CS-induced pulmonary injury assessed as reduction in hyperplasia of pneumo-cytes in lungs at 50 mg/kg, ip for 5 days by hematoxylin and eosin staining based fluorescence microscopic analysis
Mus musculus [12] = assay: Antiinflammatory activity in C57BL/6 mouse model of CS-induced pulmonary injury assessed as reduction in goblet cell hyperplasia in peribronchial in lungs at 50 mg/kg, ip for 5 days by hematoxylin and eosin staining based fluorescence microscopic analysis

Measured: Activity

C[C@@H]1C[C@H]2[C@@H]3CCC4=CC(=O)C=C[C@]4(C)[C@@]3(F)[C@@H](O)C[C@]2(C)[C@@]1(O)C(=O)CO
active: Mus musculus [1] | Mus musculus [2] | Mus musculus [3] | Mus musculus [4] | Mus musculus [5] | Mus musculus [6]

CC(C)(C)c1cc(O)ccc1O
active: Mus musculus [7] | Mus musculus [8] | Mus musculus [9] | Mus musculus [10] | Mus musculus [11] | Mus musculus [12]

From ChEMBL document CHEMBL4616634, “4β-Hydroxywithanolide E from Goldenberry (Whole Fruits of Physalis peruviana L.) as a Promising Agent against Chronic Obstructive Pulmonary Disease” (J Nat Prod, 2020)
